Source: PMC3913255, “Ligand determinants of fatty acid activation of the pronociceptive ion channel TRPA1” (PeerJ, 2014)
Where two headings read alike, the source gives them in different places. Blank lines part the entries; values can stand above or below the molecule they belong to.

Legend:
Type in all cases: cell-based
[1] = target: T1, hTRPA1 (Homo sapiens, UniProt O75762); assay: calcium fluorescence assay and whole-cell patch clamp in HEK […] cells expressing hTRPA1
T1 construct: gene TRPA1

[2] = target: T2, mTRPA1 (Mus musculus, UniProt Q8BLA8); assay: calcium fluorescence assay in HEK […] cells expressing mouse TRPA1 ([…]); details: HEK293; read-out: % of CA (300 μM) response at 100 μM
T2 construct: gene Trpa1

[3] = target: T3, CaV3.1 (Homo sapiens, UniProt O43497); assay: patch clamp recording of CaV3.[…] channels, […]
T3 construct: gene CACNA1G

[4] = target: T1, hTRPA1; assay: calcium fluorescence assay in HEK […] cells expressing hTRPA1 ([…]); details: HEK293; read-out: Change in RFU (% Predrug)
[5] = target: T1, hTRPA1; assay: as above; details: HEK293; read-out: % increase in [Ca]i at 30 μM
[6] = target: T1, hTRPA1; assay: calcium fluorescence assay and whole-cell patch clamp in HEK […] cells expressing hTRPA1; remark: listed apart in the source
[7] = target: T1, hTRPA1; assay: calcium fluorescence assay in HEK […] cells expressing hTRPA1 ([…]); details: HEK293, read-out: % increase in [Ca]i at 30 μM

T1 sequence (O75762 whole entry): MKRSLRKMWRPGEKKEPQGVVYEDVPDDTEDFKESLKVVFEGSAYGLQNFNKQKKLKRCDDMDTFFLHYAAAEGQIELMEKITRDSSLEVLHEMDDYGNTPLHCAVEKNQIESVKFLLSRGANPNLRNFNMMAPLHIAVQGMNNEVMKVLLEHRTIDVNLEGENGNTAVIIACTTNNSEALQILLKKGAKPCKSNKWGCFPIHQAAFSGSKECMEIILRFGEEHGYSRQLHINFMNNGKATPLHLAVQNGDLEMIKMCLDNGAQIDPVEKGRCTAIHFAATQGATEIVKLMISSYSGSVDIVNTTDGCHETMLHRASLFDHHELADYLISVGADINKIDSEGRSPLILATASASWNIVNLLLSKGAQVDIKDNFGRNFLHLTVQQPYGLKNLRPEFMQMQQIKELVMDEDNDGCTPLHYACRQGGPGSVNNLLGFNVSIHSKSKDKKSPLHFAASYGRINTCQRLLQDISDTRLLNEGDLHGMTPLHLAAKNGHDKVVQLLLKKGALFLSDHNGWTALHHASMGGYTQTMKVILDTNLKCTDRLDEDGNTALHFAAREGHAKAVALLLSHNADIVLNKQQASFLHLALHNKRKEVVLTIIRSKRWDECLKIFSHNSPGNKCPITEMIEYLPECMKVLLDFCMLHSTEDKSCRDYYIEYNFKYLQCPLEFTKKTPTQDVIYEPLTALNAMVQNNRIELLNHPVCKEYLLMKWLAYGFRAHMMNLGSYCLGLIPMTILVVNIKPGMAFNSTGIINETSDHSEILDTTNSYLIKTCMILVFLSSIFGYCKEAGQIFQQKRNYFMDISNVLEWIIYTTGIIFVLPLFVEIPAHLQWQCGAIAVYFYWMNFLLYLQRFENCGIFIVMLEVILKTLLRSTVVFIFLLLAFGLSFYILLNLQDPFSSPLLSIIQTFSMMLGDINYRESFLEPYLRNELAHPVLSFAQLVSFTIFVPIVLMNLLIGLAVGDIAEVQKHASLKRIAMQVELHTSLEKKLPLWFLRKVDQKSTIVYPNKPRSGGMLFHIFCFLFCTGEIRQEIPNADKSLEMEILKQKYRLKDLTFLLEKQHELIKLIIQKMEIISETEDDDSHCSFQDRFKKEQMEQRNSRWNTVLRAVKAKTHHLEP
T3 sequence (O43497 whole entry): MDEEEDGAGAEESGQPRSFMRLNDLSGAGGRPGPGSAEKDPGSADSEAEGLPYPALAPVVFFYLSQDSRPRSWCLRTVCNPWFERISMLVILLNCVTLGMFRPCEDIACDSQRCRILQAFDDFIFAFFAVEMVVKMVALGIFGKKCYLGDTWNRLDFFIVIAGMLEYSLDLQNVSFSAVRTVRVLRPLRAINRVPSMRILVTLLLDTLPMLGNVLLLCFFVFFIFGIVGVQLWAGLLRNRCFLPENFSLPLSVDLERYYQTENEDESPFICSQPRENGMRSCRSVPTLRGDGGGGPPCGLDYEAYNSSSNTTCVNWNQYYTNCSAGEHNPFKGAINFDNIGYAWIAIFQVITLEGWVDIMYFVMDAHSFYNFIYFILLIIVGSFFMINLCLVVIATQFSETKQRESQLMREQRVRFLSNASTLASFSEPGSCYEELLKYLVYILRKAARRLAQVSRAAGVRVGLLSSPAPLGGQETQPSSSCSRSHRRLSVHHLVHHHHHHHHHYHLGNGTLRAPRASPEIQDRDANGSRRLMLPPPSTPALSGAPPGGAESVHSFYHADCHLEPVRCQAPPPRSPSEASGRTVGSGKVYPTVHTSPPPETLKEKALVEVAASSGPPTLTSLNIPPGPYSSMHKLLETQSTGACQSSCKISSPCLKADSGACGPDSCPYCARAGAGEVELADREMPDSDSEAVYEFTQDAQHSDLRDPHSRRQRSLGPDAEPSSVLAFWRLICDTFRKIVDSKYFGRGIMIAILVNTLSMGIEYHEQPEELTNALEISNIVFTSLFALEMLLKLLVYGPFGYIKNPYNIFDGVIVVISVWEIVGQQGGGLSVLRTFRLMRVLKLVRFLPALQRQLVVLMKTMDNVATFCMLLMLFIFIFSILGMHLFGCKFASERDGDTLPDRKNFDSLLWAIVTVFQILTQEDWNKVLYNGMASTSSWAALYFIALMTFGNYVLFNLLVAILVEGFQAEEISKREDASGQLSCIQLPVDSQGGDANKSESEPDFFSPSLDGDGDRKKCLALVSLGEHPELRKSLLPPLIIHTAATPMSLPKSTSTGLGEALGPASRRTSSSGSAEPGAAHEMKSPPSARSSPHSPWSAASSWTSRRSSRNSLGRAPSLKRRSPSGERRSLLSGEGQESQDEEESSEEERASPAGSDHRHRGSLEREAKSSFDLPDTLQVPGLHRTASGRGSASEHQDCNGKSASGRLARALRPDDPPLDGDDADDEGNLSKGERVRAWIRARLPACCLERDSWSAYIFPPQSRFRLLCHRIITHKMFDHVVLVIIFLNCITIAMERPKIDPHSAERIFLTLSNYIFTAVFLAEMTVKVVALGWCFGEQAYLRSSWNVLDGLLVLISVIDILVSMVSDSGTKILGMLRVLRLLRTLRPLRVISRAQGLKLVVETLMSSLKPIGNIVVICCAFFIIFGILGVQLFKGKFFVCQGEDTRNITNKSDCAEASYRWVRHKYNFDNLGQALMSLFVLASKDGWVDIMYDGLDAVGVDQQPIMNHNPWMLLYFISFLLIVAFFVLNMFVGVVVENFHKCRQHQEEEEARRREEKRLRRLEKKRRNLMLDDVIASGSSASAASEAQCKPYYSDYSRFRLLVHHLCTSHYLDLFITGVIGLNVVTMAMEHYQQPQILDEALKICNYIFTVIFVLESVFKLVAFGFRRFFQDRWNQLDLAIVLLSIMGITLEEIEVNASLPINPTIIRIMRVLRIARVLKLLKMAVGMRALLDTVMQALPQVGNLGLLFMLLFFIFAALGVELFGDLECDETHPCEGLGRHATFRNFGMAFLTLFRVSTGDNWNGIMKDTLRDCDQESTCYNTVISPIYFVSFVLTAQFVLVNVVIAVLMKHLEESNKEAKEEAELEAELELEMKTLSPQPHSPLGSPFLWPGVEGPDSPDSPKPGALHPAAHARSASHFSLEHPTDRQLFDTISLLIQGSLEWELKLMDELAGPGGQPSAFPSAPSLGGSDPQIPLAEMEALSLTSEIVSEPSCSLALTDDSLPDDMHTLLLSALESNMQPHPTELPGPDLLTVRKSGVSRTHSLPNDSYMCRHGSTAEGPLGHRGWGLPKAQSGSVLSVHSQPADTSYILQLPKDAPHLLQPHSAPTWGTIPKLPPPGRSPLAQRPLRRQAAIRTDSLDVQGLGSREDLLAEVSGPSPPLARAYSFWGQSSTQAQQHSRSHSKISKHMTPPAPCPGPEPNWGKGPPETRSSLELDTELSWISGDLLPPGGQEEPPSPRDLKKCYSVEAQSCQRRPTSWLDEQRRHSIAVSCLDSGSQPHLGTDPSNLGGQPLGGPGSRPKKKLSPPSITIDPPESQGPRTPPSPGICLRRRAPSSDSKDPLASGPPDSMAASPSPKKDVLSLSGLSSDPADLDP
T2 sequence (Q8BLA8 whole entry): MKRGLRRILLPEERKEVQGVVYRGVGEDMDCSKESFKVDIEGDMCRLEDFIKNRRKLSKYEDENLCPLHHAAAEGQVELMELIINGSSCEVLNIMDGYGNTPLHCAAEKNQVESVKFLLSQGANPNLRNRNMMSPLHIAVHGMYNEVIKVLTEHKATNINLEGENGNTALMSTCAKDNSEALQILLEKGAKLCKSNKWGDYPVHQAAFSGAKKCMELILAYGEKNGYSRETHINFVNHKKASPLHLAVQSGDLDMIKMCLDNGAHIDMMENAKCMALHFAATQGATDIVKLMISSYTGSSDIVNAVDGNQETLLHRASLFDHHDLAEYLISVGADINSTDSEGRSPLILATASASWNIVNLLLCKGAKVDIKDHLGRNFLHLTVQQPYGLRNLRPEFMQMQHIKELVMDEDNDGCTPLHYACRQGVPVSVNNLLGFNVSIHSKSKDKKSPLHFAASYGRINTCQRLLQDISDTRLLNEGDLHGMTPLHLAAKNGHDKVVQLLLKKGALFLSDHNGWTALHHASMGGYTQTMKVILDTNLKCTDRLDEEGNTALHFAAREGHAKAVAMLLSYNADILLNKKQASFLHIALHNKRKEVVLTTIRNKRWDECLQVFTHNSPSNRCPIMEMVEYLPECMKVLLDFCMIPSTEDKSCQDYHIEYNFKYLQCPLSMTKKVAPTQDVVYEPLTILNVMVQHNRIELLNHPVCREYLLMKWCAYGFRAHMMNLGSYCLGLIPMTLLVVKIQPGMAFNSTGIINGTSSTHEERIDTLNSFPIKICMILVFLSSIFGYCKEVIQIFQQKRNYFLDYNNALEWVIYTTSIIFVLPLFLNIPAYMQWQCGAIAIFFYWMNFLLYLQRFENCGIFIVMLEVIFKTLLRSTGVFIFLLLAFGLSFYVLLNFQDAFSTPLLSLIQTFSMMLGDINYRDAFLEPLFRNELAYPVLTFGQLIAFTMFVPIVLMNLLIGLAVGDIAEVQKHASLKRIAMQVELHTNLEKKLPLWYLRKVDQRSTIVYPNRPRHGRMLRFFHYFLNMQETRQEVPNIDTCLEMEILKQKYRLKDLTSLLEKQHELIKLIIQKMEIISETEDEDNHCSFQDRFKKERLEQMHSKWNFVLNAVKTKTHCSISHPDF

Compound: CCCCC/C=C\C/C=C\C/C=C\C/C=C\CCCC(=O)O [AA, arachidonic acid]
EC50 [1]: 13 ± 4 µM | Emax at 100 µM [2]: 81 ± 4%

Compound: CCCCC/C=C\C/C=C\C/C=C\C/C=C\CCCC(=O)O [AA, ω6-arachidonic acid]
inhibition at 10 µM [3]: 81 ± 4%

activation at 30 µM [4]: 302 ± 53%
Compound: CCCCC/C=C\C/C=C\C/C=C\C/C=C\CCCC(=O)OC [AA-ME, Arachidonic acid methyl ester]

Compound: CCCCC/C=C\C/C=C\C/C=C\C/C=C\CCCC(=O)NCCO [AEA, anandamide]
activation at 30 µM [5]: 227 ± 42%

Compound: O=C/C=C/c1ccccc1 [CA, Cinnamaldehyde]
EC50 [6]: 11 ± 2 µM

Compound: CCCCC/C=C\C/C=C\C/C=C\C/C=C\CCCC(=O)N[C@@H](Cc1ccc(O)cc1)C(=O)O [NA-Tyr, N-arachidonoyl tyrosine]
activation at 30 µM [7]: 172 ± 20%

inhibition at 10 µM [3]: 64 ± 8%
Compound: CCCCC/C=C\C/C=C\C/C=C\C/C=C\CCCCCC(=O)O [adrenic acid]
